The source of these data is patent publication US8754242B2, “Herbicides” (Syngenta Crop Protection LLC, priority 2007, dated 2014).

Format in all cases: in vivo
Experiment [1] has as its system Echinochloa crus-galli (ECHCG). In words: Test Example 1 pre-emergence herbicidal activity. As to conditions: Echinochloa crus-galli, 480 h, rate 250 g/ha, evaluated 20 days later, read-out: Pre-emergence activity ECHCG (100=total damage to plant; 0=no damage to plant). An outline of the steps:
(§1)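 Sow in pots of standard soil → grow 1 day (pre-emergence) or 10 days (post-emergence) in glasshouse → spray aqueous formulated compound → grow on under optimum conditions → score damage 0–100 at day 20 (pre) or day 15 (post).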

Experiment [2] deals with Digitaria sanguinalis (DIGSA). In words: Test Example 1 pre-emergence herbicidal activity. The note with it: Digitaria sanguinalis, 480 h, rate 250 g/ha, evaluated 20 days later, read-out: Pre-emergence activity DIGSA (100=total damage to plant; 0=no damage to plant). An outline of the steps: as §1
For experiment [3], the system named is Setaria faberi (SETFA). In words: Test Example 1 pre-emergence herbicidal activity. The note with it: Setaria faberi, 480 h, rate 250 g/ha, evaluated 20 days later, read-out: Pre-emergence activity SETFA (100=total damage to plant; 0=no damage to plant). A digest of the protocol:
as §1

Experiment [4] has as its system Alopecurus myosuroides (ALOMY). In words: Test Example 1 pre-emergence herbicidal activity. As to conditions: Alopecurus myosuroides, 480 h, rate 250 g/ha, evaluated 20 days later, read-out: Pre-emergence activity ALOMY (100=total damage to plant; 0=no damage to plant). A digest of the protocol: as §1
Experiment [5] concerns Lolium perenne (LOLPE). In words: Test Example 1 pre-emergence herbicidal activity. As to conditions: Lolium perenne, 480 h, rate 250 g/ha, evaluated 20 days later, read-out: Pre-emergence activity LOLPE (100=total damage to plant; 0=no damage to plant). An outline of the steps:
as §1

In experiment [6] the test system is Avena fatua (AVEFA). In words: Test Example 1 pre-emergence herbicidal activity. The note with it: Avena fatua, 480 h, rate 250 g/ha, evaluated 20 days later, read-out: Pre-emergence activity AVEFA (100=total damage to plant; 0=no damage to plant). A digest of the protocol: as §1
In experiment [7] the test system is Echinochloa crus-galli (ECHCG). In words: Test Example 1 post-emergence herbicidal activity. The note with it: 360 h, rate 125 g/ha, evaluated 15 days later, read-out: Post-emergence activity ECHCG (100=total damage to plant; 0=no damage to plant). An outline of the steps:
as §1

In experiment [8] the test system is Digitaria sanguinalis (DIGSA). In words: Test Example 1 post-emergence herbicidal activity. The note with it: 360 h, rate 125 g/ha, evaluated 15 days later, read-out: Post-emergence activity DIGSA (100=total damage to plant; 0=no damage to plant). An outline of the steps: as §1
Experiment [9] deals with Setaria faberi (SETFA). In words: Test Example 1 post-emergence herbicidal activity. The note with it: 360 h, rate 125 g/ha, evaluated 15 days later, read-out: Post-emergence activity SETFA (100=total damage to plant; 0=no damage to plant). A digest of the protocol: as §1
Experiment [10] has as its system Alopecurus myosuroides (ALOMY). In words: Test Example 1 post-emergence herbicidal activity. As to conditions: 360 h, rate 125 g/ha, evaluated 15 days later, read-out: Post-emergence activity ALOMY (100=total damage to plant; 0=no damage to plant). An outline of the steps: as §1
The test system of experiment [11] is Lolium perenne (LOLPE). In words: Test Example 1 post-emergence herbicidal activity. The note with it: 360 h, rate 125 g/ha, evaluated 15 days later, read-out: Post-emergence activity LOLPE (100=total damage to plant; 0=no damage to plant). An outline of the steps: as §1
Experiment [12] deals with Avena fatua (AVEFA). In words: Test Example 1 post-emergence herbicidal activity. As to conditions: 360 h, rate 125 g/ha, evaluated 15 days later, read-out: Post-emergence activity AVEFA (100=total damage to plant; 0=no damage to plant). A digest of the protocol:
as §1

With `CCc1cc(C)cc(CC)c1C1=C(O)[C@@H]2[C@@H]3O[C@@H](C[C@H]3c3cc(OC)c(OC)c(OC)c3)[C@@H]2C1=O` (racemic) [Example T181], the pest or weed control at 250 g/ha in [1] came to 100%; in experiment [2], 90%; in the experiment with Setaria faberi (SETFA) [3] it was 70%; in [4] it was 40%; with Lolium perenne (LOLPE) [5], 80%; in the experiment with Avena fatua (AVEFA) [6] it was 40%. Besides, the pest or weed control at 125 g/ha in experiment [7] worked out at 100%; in experiment [8] it was 80%; in the experiment with Setaria faberi (SETFA) [9], 100%; in [10] it was 90%; with Lolium perenne (LOLPE) [11], 80%; in the experiment on Avena fatua (AVEFA) [12], 90%.
Take `CCc1cc(C)cc(CC)c1C1=C(O)[C@@H]2[C@@H]3O[C@@H](C[C@H]3c3cc([N+](=O)[O-])ccc3C)[C@@H]2C1=O` (racemic) [Example T184]: the pest or weed control at 250 g/ha in experiment [1] worked out at 60%; in [2], 70%; with Setaria faberi (SETFA) [3], 90%; in experiment [4], 30%; in the experiment with Lolium perenne (LOLPE) [5], 70%; in the experiment with Avena fatua (AVEFA) [6], 60%. Moreover, the pest or weed control at 125 g/ha in [7] was found to be 100%; in experiment [8], 20%; with Setaria faberi (SETFA) [9], 50%; in experiment [10], 10%; in the experiment on Lolium perenne (LOLPE) [11], 10%; in the experiment with Avena fatua (AVEFA) [12] it was 0%.
Take `Cc1cc(C)c(C2=C(O)[C@@H]3[C@@H]4O[C@@H](C[C@H]4c4cc(C(F)(F)F)nc(C(F)(F)F)c4)[C@@H]3C2=O)c(C)c1` (racemic) [Example T199]: the pest or weed control at 250 g/ha was found to be 80% in experiment [1]; 100% in experiment [2]; 60% with Setaria faberi (SETFA) [3]; 0% in [4]; 60% in the experiment with Lolium perenne (LOLPE) [5]; 50% in the experiment with Avena fatua (AVEFA) [6]. Besides, the pest or weed control at 125 g/ha in experiment [7] worked out at 100%; in experiment [8] it was 100%; with Setaria faberi (SETFA) [9] it was 80%; in experiment [10], 100%; in the experiment with Lolium perenne (LOLPE) [11] it was 60%; in the experiment on Avena fatua (AVEFA) [12], 100%.
In the case of `Cc1cc(C)c(C2=C(O)[C@@H]3[C@@H]4O[C@@H](C[C@H]4c4ccc(C(F)(F)F)cn4)[C@@H]3C2=O)c(C)c1` (racemic) [Example T200], the pest or weed control at 250 g/ha in experiment [1] came out at 90%; in experiment [2], 70%; with Setaria faberi (SETFA) [3] it was 70%; in experiment [4] it was 0%; in the experiment with Lolium perenne (LOLPE) [5], 70%; in the experiment on Avena fatua (AVEFA) [6], 0%. The pest or weed control at 125 g/ha in experiment [7] worked out at 100%; in [8], 100%; with Setaria faberi (SETFA) [9], 100%; in [10] it was 70%; with Lolium perenne (LOLPE) [11] it was 80%; with Avena fatua (AVEFA) [12], 80%.
With `CCC(C)C(=O)OC1=C(c2c(C)cc(C)cc2C)C(=O)[C@@H]2[C@H]1[C@H]1CC[C@@H]2O1` (stereo partly drawn) [Example P9], the pest or weed control at 250 g/ha in [1] turned out to be 80%; in experiment [2], 90%; in the experiment on Setaria faberi (SETFA) [3] it was 80%; in [4], 100%; in the experiment on Lolium perenne (LOLPE) [5], 100%; in the experiment on Avena fatua (AVEFA) [6], 100%. Besides, the pest or weed control at 125 g/ha in experiment [7] was 90%; in experiment [8] it was 80%; in the experiment on Setaria faberi (SETFA) [9], 80%; in experiment [10], 100%; in the experiment with Lolium perenne (LOLPE) [11] it was 100%; with Avena fatua (AVEFA) [12], 90%.
With `Cc1cc(C)c(C2=C(OC(=O)C(C)C)[C@H]3[C@@H](C2=O)[C@@H]2CC[C@H]3O2)c(C)c1` [Example P10], the pest or weed control at 250 g/ha in experiment [1] amounted to 100%; in [2], 100%; in the experiment on Setaria faberi (SETFA) [3], 80%; in experiment [4] it was 100%; in the experiment with Lolium perenne (LOLPE) [5], 100%; in the experiment with Avena fatua (AVEFA) [6] it was 100%. Moreover, the pest or weed control at 125 g/ha stood at 100% in [7]; 80% in experiment [8]; 80% in the experiment on Setaria faberi (SETFA) [9]; 100% in experiment [10]; 100% with Lolium perenne (LOLPE) [11]; 90% in the experiment with Avena fatua (AVEFA) [12].
Consider `CCc1cc(C)cc(CC)c1C1=C(OC(=O)CCCCCCC(=O)OC)[C@H]2[C@@H](C1=O)[C@@H]1CC[C@H]2O1` [Example P16], for which the pest or weed control at 250 g/ha in experiment [1] amounted to 100%; in [2] it was 100%; in the experiment with Setaria faberi (SETFA) [3], 100%; in [4] it was 100%; in the experiment on Lolium perenne (LOLPE) [5], 90%; with Avena fatua (AVEFA) [6], 90%. For the same compound, the pest or weed control at 125 g/ha is 100% in [7]; 100% in experiment [8]; 100% in the experiment on Setaria faberi (SETFA) [9]; 100% in experiment [10]; 100% in the experiment with Lolium perenne (LOLPE) [11]; 90% in the experiment on Avena fatua (AVEFA) [12].
Take `CCc1cc(C)cc(CC)c1C1=C(OC(=O)CC(C)C)[C@H]2[C@@H](C1=O)[C@@H]1CC[C@H]2O1` [Example P19]: the pest or weed control at 250 g/ha (in experiment [1]; in [2]; in the experiment on Setaria faberi (SETFA) [3]; in experiment [4]; with Lolium perenne (LOLPE) [5]; in the experiment with Avena fatua (AVEFA) [6]) was 100% each time. Moreover, the pest or weed control at 125 g/ha (in experiment [7]; in experiment [8]; with Setaria faberi (SETFA) [9]; in [10]; with Lolium perenne (LOLPE) [11]; with Avena fatua (AVEFA) [12]) was 100% in each case.
As to `C=CCC(=O)OC1=C(c2c(CC)cc(C)cc2CC)C(=O)[C@@H]2[C@H]1[C@H]1CC[C@@H]2O1` [Example P23], the pest or weed control at 250 g/ha in [1] was determined as 100%; in [2] it was 100%; in the experiment with Setaria faberi (SETFA) [3], 100%; in experiment [4], 80%; in the experiment with Lolium perenne (LOLPE) [5] it was 100%; in the experiment on Avena fatua (AVEFA) [6] it was 90%. Also, the pest or weed control at 125 g/ha in [7] came out at 100%; in experiment [8] it was 70%; with Setaria faberi (SETFA) [9], 80%; in experiment [10], 100%; with Lolium perenne (LOLPE) [11], 90%; in the experiment with Avena fatua (AVEFA) [12], 90%.
Turning to `CCc1cc(C)cc(CC)c1C1=C(OC(=O)C(C)C)[C@H]2[C@@H](C1=O)[C@@H]1CC[C@H]2O1` [Example P26], the pest or weed control at 250 g/ha is 100% in [1]; 100% in [2]; 100% with Setaria faberi (SETFA) [3]; 100% in experiment [4]; 100% in the experiment with Lolium perenne (LOLPE) [5]; 90% with Avena fatua (AVEFA) [6]. Further, the pest or weed control at 125 g/ha in experiment [7] stood at 100%; in experiment [8] it was 100%; in the experiment on Setaria faberi (SETFA) [9] it was 100%; in experiment [10], 100%; in the experiment with Lolium perenne (LOLPE) [11], 90%; in the experiment with Avena fatua (AVEFA) [12], 100%.
